Here are results for 14 molecules from ChEMBL document CHEMBL1137572, “CYP2C9 structure-metabolism relationships: substrates, inhibitors, and metabolites” (J Med Chem, 2007).

A word on the IC50: it is the concentration needed to halve the response being measured.

Sequence of Cytochrome P450 2C9 (P11712 whole entry): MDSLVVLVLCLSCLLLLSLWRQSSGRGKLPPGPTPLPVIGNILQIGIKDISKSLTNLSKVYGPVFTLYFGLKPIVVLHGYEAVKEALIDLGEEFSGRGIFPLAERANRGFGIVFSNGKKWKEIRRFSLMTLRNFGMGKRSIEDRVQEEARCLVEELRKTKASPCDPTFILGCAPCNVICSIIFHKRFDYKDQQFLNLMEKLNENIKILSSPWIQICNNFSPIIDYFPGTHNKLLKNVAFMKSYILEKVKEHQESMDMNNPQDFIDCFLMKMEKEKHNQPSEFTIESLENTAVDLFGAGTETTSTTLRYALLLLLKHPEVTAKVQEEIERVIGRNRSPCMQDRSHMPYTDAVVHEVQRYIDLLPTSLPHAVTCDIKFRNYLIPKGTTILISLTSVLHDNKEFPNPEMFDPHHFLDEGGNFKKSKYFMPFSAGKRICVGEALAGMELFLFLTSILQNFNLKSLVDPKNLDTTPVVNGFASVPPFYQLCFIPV

The test concerns the target Cytochrome P450 2C9 (Homo sapiens, UniProt P11712). In words: Inhibition of recombinant CYP2C9 by fluorescence inhibition assay. It is filed as ADME.
As to `CSc1ccc(-n2nc(C(F)(F)F)cc2-c2ccc(C)cc2)cc1`, the IC50 is more than 40 µM. With `Cc1ccc(-c2cc(C(F)(F)F)nn2-c2ccc(S(C)(=O)=O)cc2)cc1` the figure was 16 µM.

As for `CCOC(=O)c1ccc(-n2nc(C(F)(F)F)cc2-c2ccc(C(F)(F)F)cc2)cc1`, the 50% inhibitory concentration (IC50) is more than 40 µM. As to `O=C(O)c1ccc(-n2nc(C(F)(F)F)cc2-c2ccc(C(F)(F)F)cc2)cc1`, the IC50 is more than 40 µM. Under `Cc1ccc(-c2cc(C(F)(F)F)nn2-c2ccc(C)cc2)cc1` stands more than 40 µM; under `Cc1ccc(-c2cc(C(F)(F)F)nn2-c2ccc(CC(=O)O)cc2)cc1`, more than 40 µM. On to `Cc1ccc(-c2cc(C(=O)O)nn2-c2ccc(S(N)(=O)=O)cc2)cc1`, for which the half-inhibitory concentration (IC50) is more than 40 µM.

Turning to `Cc1ccc(-c2cc(-c3ccccc3)nn2-c2ccc(S(N)(=O)=O)cc2)cc1`, the half-inhibitory concentration (IC50) came to 16 µM.

Regarding `NS(=O)(=O)c1ccc(-n2nc(C(F)(F)F)cc2-c2ccc(C(F)(F)F)cc2)cc1`, the 50% inhibitory concentration (IC50) was found to be 17 µM. With `O=C(O)Cc1ccc(-n2nc(C(F)(F)F)cc2-c2ccc(C(F)(F)F)cc2)cc1` the figure was 25 µM; with `Cc1ccc(-c2cc(C(F)(F)F)nn2-c2ccc(C(=O)O)cc2)cc1`, more than 40 µM; with `Cc1ccc(-c2cc(C(F)(F)F)nn2-c2ccc([S+](C)[O-])cc2)cc1` (centres undefined), 26 µM.

With `CCOC(=O)c1ccc(-n2nc(C(F)(F)F)cc2-c2ccc(C)cc2)cc1`, the half-maximal inhibitory concentration (IC50) is more than 40 µM.

Turning to `Cc1ccc(-c2cc(C(F)(F)F)nn2-c2ccc(S(N)(=O)=O)cc2)cc1` [CELECOXIB], the IC50 worked out at 10 µM.
